These molecules were tested against Acetylcholinesterase (Homo sapiens, UniProt P22303) (assay: Inhibition of human erythrocyte AChE using S-acetylthiocholine iodide as substrate pretreated for 20 mins followed by substrate addition measured after 30 mins by Ellman's method).
Acetylcholinesterase, sequence (P22303 whole entry): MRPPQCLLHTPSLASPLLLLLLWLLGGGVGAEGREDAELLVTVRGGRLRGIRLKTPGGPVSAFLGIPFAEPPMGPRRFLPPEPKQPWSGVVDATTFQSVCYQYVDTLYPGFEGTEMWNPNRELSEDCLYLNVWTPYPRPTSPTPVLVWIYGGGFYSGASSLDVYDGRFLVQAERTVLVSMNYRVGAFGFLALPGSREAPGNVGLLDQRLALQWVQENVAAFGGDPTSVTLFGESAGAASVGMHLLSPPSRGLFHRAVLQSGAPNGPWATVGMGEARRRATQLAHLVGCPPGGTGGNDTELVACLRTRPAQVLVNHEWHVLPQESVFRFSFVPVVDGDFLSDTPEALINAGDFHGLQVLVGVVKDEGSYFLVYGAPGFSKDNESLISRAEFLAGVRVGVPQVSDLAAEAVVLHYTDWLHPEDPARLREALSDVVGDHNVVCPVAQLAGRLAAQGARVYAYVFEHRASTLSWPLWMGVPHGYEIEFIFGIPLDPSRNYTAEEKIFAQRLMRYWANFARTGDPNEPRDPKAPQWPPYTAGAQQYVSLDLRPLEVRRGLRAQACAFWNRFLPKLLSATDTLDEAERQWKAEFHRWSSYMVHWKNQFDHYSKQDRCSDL

`COc1ccc2c(c1O)CN1CCc3cc4c(cc3C1C2)OCO4` (configuration not stated) and `CO[C@@H]1O[C@H]([C@@H]2c3cc4c(cc3CCN2C)OCO4)c2ccc3c(c21)OCO3` cannot be ordered by IC50: over 100 µM for the first, over 100 µM for the second.

`C[C@@]1(c2nccc3cc4c(cc23)OCO4)Oc2ccc3c(c2O1)OCO3` and `C[C@]1(c2nccc3cc4c(cc23)OCO4)Oc2ccc3c(c2O1)OCO3` cannot be ordered by IC50: over 100 µM for the first, over 100 µM for the second.

`CO[C@@H]1O[C@](C)(c2nccc3cc4c(cc23)OCO4)c2ccc3c(c21)OCO3` and `CO[C@@H]1O[C@@](C)(c2nccc3cc4c(cc23)OCO4)c2ccc3c(c21)OCO3` cannot be ordered by IC50: over 100 µM for the first, over 100 µM for the second.

`CN1CCc2cc3c(cc2[C@H]1[C@H]1O[C@@H](O)c2c1ccc1c2OCO1)OCO3` and `CN1CCc2cc3c(cc2[C@H]1[C@H]1OC(=O)c2c1ccc1c2OCO1)OCO3` cannot be ordered by IC50: over 100 µM for the first, over 100 µM for the second.

First: c1cc2cc3c(cc2c([C@H]2Oc4ccc5c(c4O2)OCO5)n1)OCO3
Second: c1cc2cc3c(cc2c([C@@H]2Oc4ccc5c(c4O2)OCO5)n1)OCO3
The IC50 of the first is lower: 78.1 µM for the first, over 100 µM for the second. The first is the more potent here.

`C[C@@H](c1ccc2c(c1O)OCO2)c1nccc2cc3c(cc12)OCO3` and `C[C@H](c1ccc2c(c1O)OCO2)c1nccc2cc3c(cc12)OCO3` cannot be ordered by IC50: over 100 µM for the first, over 100 µM for the second.

First: CO[C@H]1O[C@@](C)(c2nccc3cc4c(cc23)OCO4)c2ccc3c(c21)OCO3
Second: CO[C@H]1O[C@](C)(c2nccc3cc4c(cc23)OCO4)c2ccc3c(c21)OCO3
The IC50 of the first is lower: 28.3 µM for the first, over 100 µM for the second. The first is the more potent here.

`CN1CCc2cc3c(cc2C1=O)OCO3` and `CN1CCc2cc3c(cc2C(=O)Cc2ccc4c(c2C1)OCO4)OCO3` cannot be ordered by IC50: over 100 µM for the first, over 100 µM for the second.

Going from `COC1c2c(ccc3c2OCO3)-c2ccc3cc4c(cc3c2N1C)OCO4` (configuration not stated) to `CN1Cc2c(ccc3c2OCO3)-c2ccc3cc4c(cc3c21)OCO4` [DIHYDROSANGUINARINE], the IC50 rises from 96.8 µM to over 100 µM. The first is the more potent here.

`CN1CCc2cc3c(cc2[C@@]12C(=O)c1ccc4c(c1[C@@H]2O)OCO4)OCO3` and `CN1CCc2cc3c(cc2C12OCc1c(ccc4c1OCO4)C2=O)OCO3` (racemic) cannot be ordered by IC50: over 100 µM for the first, over 100 µM for the second.

With `CC1(c2nccc3cc4c(cc23)OCO4)OC(O)c2c1ccc1c2OCO1` (single isomer, unassigned) the IC50 was 11.3 µM.
In the case of `CC1(c2nccc3cc4c(cc23)OCO4)OC(O)c2c1ccc1c2OCO1` (single isomer, unassigned; epimer 1), the IC50 is reported as 12.2 µM.
